{
  "source": "PubChem BioAssay (NCI)",
  "experiment_in_all_cases": "NCI anticancer screen, dose series, 48 h",
  "key": {"[1]": {"tested_on": "M14 melanoma"}, "[2]": {"tested_on": "ACHN renal"}, "[3]": {"tested_on": "SNB-75 CNS"}, "[4]": {"tested_on": "OVCAR-8 ovarian"}, "[5]": {"tested_on": "SK-MEL-5 melanoma"}, "[6]": {"tested_on": "SF-295 CNS"}, "[7]": {"tested_on": "SN12C renal"}, "[8]": {"tested_on": "DMS 114 small cell lung"}, "[9]": {"tested_on": "SW-620 colon"}, "[10]": {"tested_on": "HCT-15 colon"}, "[11]": {"tested_on": "NCI-H23 lung"}, "[12]": {"tested_on": "RPMI-8226 leukemia"}, "[13]": {"tested_on": "RXF 393 renal"}, "[14]": {"tested_on": "SNB-78 CNS"}, "[15]": {"tested_on": "786-0 renal"}, "[16]": {"tested_on": "LXFL 529 NSCLC"}, "[17]": {"tested_on": "SF-539 CNS"}, "[18]": {"tested_on": "EKVX NSCLC"}, "[19]": {"tested_on": "HOP-18 NSCLC"}, "[20]": {"tested_on": "HL-60(TB) leukemia"}, "[21]": {"tested_on": "IGROV1 ovarian"}, "[22]": {"tested_on": "SF-268 CNS"}, "[23]": {"tested_on": "OVCAR-3 ovarian"}, "[24]": {"tested_on": "SK-OV-3 ovarian"}, "[25]": {"tested_on": "UO-31 renal"}, "[26]": {"tested_on": "NCI-H522 lung"}, "[27]": {"tested_on": "HT29 colon"}, "[28]": {"tested_on": "U251 CNS"}, "[29]": {"tested_on": "M19-MEL melanoma"}, "[30]": {"tested_on": "KM20L2 colon"}, "[31]": {"tested_on": "TK-10 renal"}, "[32]": {"tested_on": "HOP-62 NSCLC"}, "[33]": {"tested_on": "K-562 leukemia"}, "[34]": {"tested_on": "SR leukemia"}, "[35]": {"tested_on": "XF 498 CNS"}, "[36]": {"tested_on": "UACC-62 melanoma"}, "[37]": {"tested_on": "CAKI-1 renal"}, "[38]": {"tested_on": "HCC-2998 colon"}, "[39]": {"tested_on": "CCRF-CEM leukemia"}, "[40]": {"tested_on": "SK-MEL-2 melanoma"}, "[41]": {"tested_on": "A549 NSCLC"}, "[42]": {"tested_on": "COLO 205 colon"}, "[43]": {"tested_on": "HCT-116 colon"}, "[44]": {"tested_on": "DMS 273 small cell lung"}, "[45]": {"tested_on": "NCI-H460 lung"}, "[46]": {"tested_on": "OVCAR-4 ovarian"}, "[47]": {"tested_on": "OVCAR-5 ovarian"}, "[48]": {"tested_on": "KM12 colon"}, "[49]": {"tested_on": "NCI-H226 lung"}, "[50]": {"tested_on": "MOLT-4 leukemia"}, "[51]": {"tested_on": "SNB-19 CNS"}, "[52]": {"tested_on": "SK-MEL-28 melanoma"}, "[53]": {"tested_on": "MALME-3M melanoma"}, "[54]": {"tested_on": "A498 renal"}, "[55]": {"tested_on": "HOP-92 NSCLC"}, "[56]": {"tested_on": "UACC-257 melanoma"}, "[57]": {"tested_on": "DLD-1 colon"}, "[58]": {"tested_on": "LOX IMVI melanoma"}},
  "note": "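Compound exposure: 48 hours, 5 concentrations, 96-well plates. The concentration for full growth arrest is given as TGI.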",
  "data": [
    {"smiles": "COc1cc2c(cc1OC)C(Cc1ccc(Oc3cc(CC4c5cc(OC)c(OC)cc5CCN4C)ccc3O)cc1)N(C)CC2", "note": "(stereo not drawn)", "values": [
      {"measurement": "TGI", "setting": "[1]", "result": 28.7, "unit": "µM"},
      {"measurement": "TGI", "setting": "[2]", "result": 35.2, "unit": "µM"},
      {"measurement": "TGI", "setting": "[3]", "result": 31.6, "unit": "µM"},
      {"measurement": "TGI", "setting": "[4]", "result": "> 100", "unit": "µM"},
      {"measurement": "TGI", "setting": "[5]", "result": 29.1, "unit": "µM"},
      {"measurement": "TGI", "setting": "[6]", "result": 47.1, "unit": "µM"},
      {"measurement": "TGI", "setting": "[7]", "result": "> 100", "unit": "µM"},
      {"measurement": "TGI", "setting": "[8]", "result": 30.9, "unit": "µM"},
      {"measurement": "TGI", "setting": "[9]", "result": 35.5, "unit": "µM"},
      {"measurement": "TGI", "setting": "[10]", "result": 32, "unit": "µM"},
      {"measurement": "TGI", "setting": "[11]", "result": "> 100", "unit": "µM"},
      {"measurement": "TGI", "setting": "[12]", "result": 51.4, "unit": "µM"},
      {"measurement": "TGI", "setting": "[13]", "result": 29.4, "unit": "µM"},
      {"measurement": "TGI", "setting": "[14]", "result": "> 100", "unit": "µM"},
      {"measurement": "TGI", "setting": "[15]", "result": 27.1, "unit": "µM"},
      {"measurement": "TGI", "setting": "[16]", "result": 28.5, "unit": "µM"},
      {"measurement": "TGI", "setting": "[17]", "result": 30.6, "unit": "µM"},
      {"measurement": "TGI", "setting": "[18]", "result": "> 100", "unit": "µM"},
      {"measurement": "TGI", "setting": "[19]", "result": 76.6, "unit": "µM"},
      {"measurement": "TGI", "setting": "[20]", "result": 30.4, "unit": "µM"},
      {"measurement": "TGI", "setting": "[21]", "result": 56.5, "unit": "µM"},
      {"measurement": "TGI", "setting": "[22]", "result": 28.7, "unit": "µM"},
      {"measurement": "TGI", "setting": "[23]", "result": 50.1, "unit": "µM"},
      {"measurement": "TGI", "setting": "[24]", "result": "> 100", "unit": "µM"},
      {"measurement": "TGI", "setting": "[25]", "result": 28.3, "unit": "µM"},
      {"measurement": "TGI", "setting": "[26]", "result": 25, "unit": "µM"},
      {"measurement": "TGI", "setting": "[27]", "result": 28.9, "unit": "µM"},
      {"measurement": "TGI", "setting": "[28]", "result": 38.2, "unit": "µM"},
      {"measurement": "TGI", "setting": "[29]", "result": 39, "unit": "µM"},
      {"measurement": "TGI", "setting": "[30]", "result": 34.3, "unit": "µM"},
      {"measurement": "TGI", "setting": "[31]", "result": "> 100", "unit": "µM"},
      {"measurement": "TGI", "setting": "[32]", "result": 57.4, "unit": "µM"},
      {"measurement": "TGI", "setting": "[33]", "result": 29.3, "unit": "µM"},
      {"measurement": "TGI", "setting": "[34]", "result": 24.1, "unit": "µM"},
      {"measurement": "TGI", "setting": "[35]", "result": 34.2, "unit": "µM"},
      {"measurement": "TGI", "setting": "[36]", "result": 32.4, "unit": "µM"},
      {"measurement": "TGI", "setting": "[37]", "result": 73.3, "unit": "µM"},
      {"measurement": "TGI", "setting": "[38]", "result": 28.1, "unit": "µM"},
      {"measurement": "TGI", "setting": "[39]", "result": 58.4, "unit": "µM"},
      {"measurement": "TGI", "setting": "[40]", "result": 31, "unit": "µM"},
      {"measurement": "TGI", "setting": "[41]", "result": "> 100", "unit": "µM"},
      {"measurement": "TGI", "setting": "[42]", "result": 23.8, "unit": "µM"},
      {"measurement": "TGI", "setting": "[43]", "result": 22, "unit": "µM"},
      {"measurement": "TGI", "setting": "[44]", "result": 47.8, "unit": "µM"},
      {"measurement": "TGI", "setting": "[45]", "result": 80.4, "unit": "µM"},
      {"measurement": "TGI", "setting": "[46]", "result": 54.7, "unit": "µM"},
      {"measurement": "TGI", "setting": "[47]", "result": "> 100", "unit": "µM"},
      {"measurement": "TGI", "setting": "[48]", "result": 70.7, "unit": "µM"},
      {"measurement": "TGI", "setting": "[49]", "result": 57.5, "unit": "µM"},
      {"measurement": "TGI", "setting": "[50]", "result": 41.5, "unit": "µM"},
      {"measurement": "TGI", "setting": "[51]", "result": "> 100", "unit": "µM"},
      {"measurement": "TGI", "setting": "[52]", "result": 30.2, "unit": "µM"},
      {"measurement": "TGI", "setting": "[53]", "result": 34.7, "unit": "µM"},
      {"measurement": "TGI", "setting": "[54]", "result": 49.1, "unit": "µM"},
      {"measurement": "TGI", "setting": "[55]", "result": 55.9, "unit": "µM"},
      {"measurement": "TGI", "setting": "[56]", "result": 32, "unit": "µM"},
      {"measurement": "TGI", "setting": "[57]", "result": 38.7, "unit": "µM"},
      {"measurement": "TGI", "setting": "[58]", "result": 32.6, "unit": "µM"}
    ]}
  ]
}
